Data as given in ChEMBL document CHEMBL6182925 (J Med Chem, 2025).
In brackets after ≈: the same amount, converted by molar mass. Blank lines part the entries; values can stand above or below the molecule they belong to.

Experiments:
[1] = target: hERG (Homo sapiens, UniProt Q12809); assay: Inhibition of hERG at 10 uM by CEREP analysis relative to control; type: toxicity
[2] = Dose-normalized AUC in male Sprague-Dawley rat at 10 mg/kg, po; type: ADME, organism-based; conditions: in vivo
[3] = Dose-normalized AUC in male Beagle dog at 15 mg/kg, po; type: ADME, organism-based, Canis lupus familiaris; conditions: in vivo
[4] = AUClast in male Sprague-Dawley rat at 10 mg/kg, po; type: ADME, organism-based; conditions: in vivo
[5] = test system: BaF3; assay: cells; conditions: Mus musculus, BaF3, 72 h
[6] = Volume of distribution in male Beagle dog at 2 mg/kg, iv; type: ADME, organism-based, Canis lupus familiaris; conditions: in vivo
[7] = Stability in rat hepatocytes measured for 175 mins; type: ADME, cell-based, Hepatocyte; conditions: 2.917 h
[8] = target: 3',5'-cyclic-AMP phosphodiesterase 4D (Homo sapiens) (UniProt Q08499); assay: Inhibition of PDE4D2 (unknown origin) at 10 uM by CEREP analysis relative to control
[9] = Clearance in female Balb/c mouse at 5 mg/kg, iv; type: ADME, organism-based; conditions: in vivo
[10] = target: 5-hydroxytryptamine receptor 1B (Homo sapiens) (UniProt P28222); assay: Inhibition of 5-HT1B receptor (unknown origin) at 10 uM by CEREP analysis relative to control
[11] = Oral bioavailability in Balb/c mouse at 10 mg/kg; type: ADME, organism-based; conditions: in vivo
[12] = Oral bioavailability in male Sprague-Dawley rat at 10 mg/kg; type: ADME, organism-based; conditions: in vivo
[13] = AUClast in male Beagle dog at 15 mg/kg, po; type: ADME, organism-based, Canis lupus familiaris; conditions: in vivo
[14] = target: 5-hydroxytryptamine receptor 2B (Homo sapiens) (UniProt P41595); assay: Inhibition of 5-HT2B receptor (unknown origin) at 10 uM by CEREP analysis relative to control
[15] = Half life in male Beagle dog at 2 mg/kg, iv; type: ADME, organism-based, Canis lupus familiaris; conditions: in vivo
[16] = Stability in mouse hepatocytes measured for 127 mins; type: ADME, cell-based, Hepatocyte; conditions: 2.117 h
[17] = Stability in monkey hepatocytes measured for 75 mins; type: ADME, cell-based, Macaca mulatta, Hepatocyte; conditions: rhesus monkey, 1.25 h
[18] = Kinetic solubility of compound at pH 2; type: physicochemical; conditions: buffer, read-out: Kinetic_solubility
[19] = Oral bioavailability in male Sprague-Dawley rat at 30 mg/kg; type: ADME, organism-based; conditions: in vivo
[20] = Half life in male Sprague-Dawley rat at 3 mg/kg, iv; type: ADME, organism-based; conditions: in vivo
[21] = Volume of distribution in female Balb/c mouse at 5 mg/kg, iv; type: ADME, organism-based; conditions: in vivo
[22] = Clearance in male Sprague-Dawley rat at 3 mg/kg, iv; type: ADME, organism-based; conditions: in vivo
[23] = target: cGMP-inhibited 3',5'-cyclic phosphodiesterase 3A (Homo sapiens) (UniProt Q14432); assay: Inhibition of PDE3A (unknown origin) at 10 uM by CEREP analysis relative to control
[24] = Oral bioavailability in male Beagle dog at 30 mg/kg; type: ADME, organism-based, Canis lupus familiaris; conditions: in vivo
[25] = Oral bioavailability in female Balb/c mouse at 30 mg/kg; type: ADME, organism-based; conditions: in vivo
[26] = target: Sodium-dependent serotonin transporter (Homo sapiens) (UniProt P31645); assay: Inhibition of SERT (unknown origin) at 10 uM by CEREP analysis relative to control
[27] = Oral bioavailability in male Beagle dog at 15 mg/kg; type: ADME, organism-based, Canis lupus familiaris; conditions: in vivo
[28] = target: T1, Alpha-2A adrenergic receptor (Homo sapiens) (UniProt P08913); assay: Inhibition of alpha 2A adrenergic receptor (unknown origin) at 10 uM by CEREP analysis relative to control
T1 sequence (whole entry): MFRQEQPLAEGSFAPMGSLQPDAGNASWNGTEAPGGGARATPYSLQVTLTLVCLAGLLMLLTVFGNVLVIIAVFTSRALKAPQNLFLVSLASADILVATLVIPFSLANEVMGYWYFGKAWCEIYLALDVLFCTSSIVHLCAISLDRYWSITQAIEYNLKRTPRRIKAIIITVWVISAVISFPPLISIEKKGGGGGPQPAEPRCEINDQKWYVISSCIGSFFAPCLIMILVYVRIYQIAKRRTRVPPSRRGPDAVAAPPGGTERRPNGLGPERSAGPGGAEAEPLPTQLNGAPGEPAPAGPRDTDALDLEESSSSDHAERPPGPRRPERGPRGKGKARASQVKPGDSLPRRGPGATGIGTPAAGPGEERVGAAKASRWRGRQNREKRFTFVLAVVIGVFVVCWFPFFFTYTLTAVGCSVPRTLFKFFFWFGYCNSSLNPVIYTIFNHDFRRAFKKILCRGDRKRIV

[29] = species on record: Homo sapiens; assay: Inhibition of sodium channel site 2 (unknown origin) at 10 uM by CEREP analysis relative to control
[30] = target: L-type calcium channel (Homo sapiens, UniProt O60840+Q01668+Q13698+Q13936); assay: Inhibition of Calcium channel L-type (unknown origin) at 10 uM by CEREP analysis relative to control; type: protein assay
[31] = Kinetic solubility of compound at pH 4.5; type: physicochemical; conditions: buffer, read-out: Kinetic_solubility
[32] = Dose-normalized AUC in female Balb/c mouse at 10 mg/kg, po; type: ADME, organism-based; conditions: in vivo
[33] = Volume of distribution in male Sprague-Dawley rat at 3 mg/kg, iv; type: ADME, organism-based; conditions: in vivo
[34] = Stability in dog hepatocytes; type: ADME, cell-based, Canis lupus familiaris, Hepatocyte
[35] = Half life in female Balb/c mouse at 5 mg/kg, iv; type: ADME, organism-based; conditions: in vivo
[36] = AUClast in Balb/c mouse at 10 mg/kg, po; type: ADME, organism-based; conditions: in vivo
[37] = cells; conditions: Mus musculus, BaF3/TRP-Met, 72 h
[38] = Stability in human hepatocytes; type: ADME, cell-based, Hepatocyte
[39] = Clearance in male Beagle dog at 2 mg/kg, iv; type: ADME, organism-based, Canis lupus familiaris; conditions: in vivo
[40] = test system: BaF3; assay: Antitumor activity against mouse BaF3 cells harboring TPR-D1228N mutant cells allografted in athymic BALB/c nude mouse at 10 mg/kg, po bid treated for 10 days relative to control; type: functional; conditions: BaF3, 240 h, time 10 day, read-out: TGI

Chain of hERG (Q12809 whole entry): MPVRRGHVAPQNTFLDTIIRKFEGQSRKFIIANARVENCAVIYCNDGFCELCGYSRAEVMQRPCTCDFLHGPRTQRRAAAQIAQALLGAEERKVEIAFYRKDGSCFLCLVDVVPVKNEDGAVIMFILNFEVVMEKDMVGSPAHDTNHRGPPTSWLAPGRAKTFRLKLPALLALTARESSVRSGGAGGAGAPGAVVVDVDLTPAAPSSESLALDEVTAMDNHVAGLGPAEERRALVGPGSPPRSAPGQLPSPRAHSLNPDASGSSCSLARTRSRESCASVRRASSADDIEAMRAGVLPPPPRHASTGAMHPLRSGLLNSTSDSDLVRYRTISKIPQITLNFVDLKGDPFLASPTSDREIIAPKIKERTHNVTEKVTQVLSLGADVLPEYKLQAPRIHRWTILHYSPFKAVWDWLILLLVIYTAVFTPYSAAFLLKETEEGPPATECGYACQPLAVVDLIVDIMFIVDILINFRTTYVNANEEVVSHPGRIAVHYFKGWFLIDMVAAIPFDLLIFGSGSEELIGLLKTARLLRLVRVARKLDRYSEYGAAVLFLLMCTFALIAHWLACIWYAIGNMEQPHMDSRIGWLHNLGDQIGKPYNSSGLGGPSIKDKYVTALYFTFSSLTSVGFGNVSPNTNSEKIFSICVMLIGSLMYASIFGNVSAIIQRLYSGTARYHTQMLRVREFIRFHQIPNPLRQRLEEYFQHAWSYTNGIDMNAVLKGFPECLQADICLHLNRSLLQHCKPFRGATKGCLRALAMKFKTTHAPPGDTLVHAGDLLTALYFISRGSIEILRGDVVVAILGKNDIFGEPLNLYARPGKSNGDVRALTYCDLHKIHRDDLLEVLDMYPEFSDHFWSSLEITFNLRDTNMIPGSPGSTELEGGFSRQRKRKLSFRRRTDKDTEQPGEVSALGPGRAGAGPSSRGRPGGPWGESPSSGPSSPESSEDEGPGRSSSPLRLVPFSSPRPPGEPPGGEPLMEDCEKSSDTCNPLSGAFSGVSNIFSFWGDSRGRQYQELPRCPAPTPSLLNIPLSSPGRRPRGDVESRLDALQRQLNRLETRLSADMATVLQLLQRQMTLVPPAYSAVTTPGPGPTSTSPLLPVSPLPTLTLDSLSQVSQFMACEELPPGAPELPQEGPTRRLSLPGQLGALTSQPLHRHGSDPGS
Chain of cGMP-inhibited 3',5'-cyclic phosphodiesterase 3A (Homo sapiens) (Q14432 whole entry): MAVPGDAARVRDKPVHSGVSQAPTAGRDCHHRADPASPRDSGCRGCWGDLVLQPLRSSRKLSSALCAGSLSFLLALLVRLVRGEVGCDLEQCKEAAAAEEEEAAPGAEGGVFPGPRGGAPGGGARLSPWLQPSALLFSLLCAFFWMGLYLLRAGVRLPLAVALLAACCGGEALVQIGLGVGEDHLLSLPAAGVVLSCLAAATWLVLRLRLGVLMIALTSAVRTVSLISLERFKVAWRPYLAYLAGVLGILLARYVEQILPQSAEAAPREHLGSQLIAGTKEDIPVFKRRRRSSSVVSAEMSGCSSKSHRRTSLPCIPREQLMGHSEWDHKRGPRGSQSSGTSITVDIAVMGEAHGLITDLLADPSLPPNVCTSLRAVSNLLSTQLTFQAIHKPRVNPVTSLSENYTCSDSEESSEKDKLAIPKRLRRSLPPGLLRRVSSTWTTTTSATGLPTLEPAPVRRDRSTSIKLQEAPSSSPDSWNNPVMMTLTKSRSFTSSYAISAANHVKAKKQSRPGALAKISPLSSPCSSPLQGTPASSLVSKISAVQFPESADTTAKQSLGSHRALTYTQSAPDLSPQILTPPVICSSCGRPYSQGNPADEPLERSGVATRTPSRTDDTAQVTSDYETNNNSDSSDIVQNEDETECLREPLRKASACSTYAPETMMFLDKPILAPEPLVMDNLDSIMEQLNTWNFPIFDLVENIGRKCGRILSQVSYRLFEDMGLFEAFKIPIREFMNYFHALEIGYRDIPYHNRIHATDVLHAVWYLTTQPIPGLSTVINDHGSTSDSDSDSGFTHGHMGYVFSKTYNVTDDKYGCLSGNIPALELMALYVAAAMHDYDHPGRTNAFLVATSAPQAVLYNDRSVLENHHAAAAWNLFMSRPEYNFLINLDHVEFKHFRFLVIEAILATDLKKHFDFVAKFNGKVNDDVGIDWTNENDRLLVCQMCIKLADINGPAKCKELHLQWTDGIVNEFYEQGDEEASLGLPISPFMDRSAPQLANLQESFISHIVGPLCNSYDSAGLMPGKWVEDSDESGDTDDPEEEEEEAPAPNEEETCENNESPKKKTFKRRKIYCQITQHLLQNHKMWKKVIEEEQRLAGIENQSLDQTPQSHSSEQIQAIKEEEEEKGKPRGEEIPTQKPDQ
Chain of 5-hydroxytryptamine receptor 1B (Homo sapiens) (P28222 whole entry): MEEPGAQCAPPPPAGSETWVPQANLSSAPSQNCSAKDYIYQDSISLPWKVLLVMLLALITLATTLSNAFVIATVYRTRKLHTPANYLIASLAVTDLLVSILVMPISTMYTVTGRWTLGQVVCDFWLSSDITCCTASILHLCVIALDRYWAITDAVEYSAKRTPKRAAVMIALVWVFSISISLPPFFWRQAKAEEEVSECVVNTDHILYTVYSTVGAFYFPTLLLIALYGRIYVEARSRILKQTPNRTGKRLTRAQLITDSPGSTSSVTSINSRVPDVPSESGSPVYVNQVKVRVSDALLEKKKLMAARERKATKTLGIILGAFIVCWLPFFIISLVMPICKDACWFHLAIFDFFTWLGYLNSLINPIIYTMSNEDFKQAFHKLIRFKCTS
Chain of Sodium-dependent serotonin transporter (Homo sapiens) (P31645 whole entry, looked up): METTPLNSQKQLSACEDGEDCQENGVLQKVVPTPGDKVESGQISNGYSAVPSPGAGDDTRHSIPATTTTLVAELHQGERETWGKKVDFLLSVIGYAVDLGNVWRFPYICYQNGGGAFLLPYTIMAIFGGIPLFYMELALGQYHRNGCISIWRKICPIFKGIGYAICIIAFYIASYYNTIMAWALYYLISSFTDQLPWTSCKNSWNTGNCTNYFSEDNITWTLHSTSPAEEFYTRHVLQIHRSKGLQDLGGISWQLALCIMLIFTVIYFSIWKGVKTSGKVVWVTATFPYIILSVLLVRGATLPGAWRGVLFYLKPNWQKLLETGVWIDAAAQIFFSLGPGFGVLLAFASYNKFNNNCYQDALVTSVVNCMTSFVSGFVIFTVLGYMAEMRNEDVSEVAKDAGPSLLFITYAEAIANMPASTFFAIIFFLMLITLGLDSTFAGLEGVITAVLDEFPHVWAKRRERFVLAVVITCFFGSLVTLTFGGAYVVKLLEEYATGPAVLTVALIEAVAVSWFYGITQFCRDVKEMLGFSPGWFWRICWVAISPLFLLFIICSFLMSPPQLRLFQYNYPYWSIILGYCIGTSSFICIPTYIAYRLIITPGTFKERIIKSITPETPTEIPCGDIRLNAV
Chain of 5-hydroxytryptamine receptor 2B (Homo sapiens) (P41595 whole entry): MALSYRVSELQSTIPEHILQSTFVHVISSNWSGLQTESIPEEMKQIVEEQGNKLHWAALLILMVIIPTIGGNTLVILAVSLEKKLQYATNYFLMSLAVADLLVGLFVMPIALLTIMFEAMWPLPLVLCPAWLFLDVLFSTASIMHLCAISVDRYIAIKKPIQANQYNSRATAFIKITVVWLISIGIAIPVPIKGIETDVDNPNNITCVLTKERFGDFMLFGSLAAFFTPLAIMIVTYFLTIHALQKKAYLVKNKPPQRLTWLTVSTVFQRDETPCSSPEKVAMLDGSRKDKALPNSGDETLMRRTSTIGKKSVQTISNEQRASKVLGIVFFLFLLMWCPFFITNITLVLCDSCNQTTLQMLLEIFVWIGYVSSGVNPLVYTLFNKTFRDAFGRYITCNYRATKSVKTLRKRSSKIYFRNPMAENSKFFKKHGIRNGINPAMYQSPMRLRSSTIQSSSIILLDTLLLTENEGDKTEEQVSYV
Chain of 3',5'-cyclic-AMP phosphodiesterase 4D (Homo sapiens) (Q08499 whole entry): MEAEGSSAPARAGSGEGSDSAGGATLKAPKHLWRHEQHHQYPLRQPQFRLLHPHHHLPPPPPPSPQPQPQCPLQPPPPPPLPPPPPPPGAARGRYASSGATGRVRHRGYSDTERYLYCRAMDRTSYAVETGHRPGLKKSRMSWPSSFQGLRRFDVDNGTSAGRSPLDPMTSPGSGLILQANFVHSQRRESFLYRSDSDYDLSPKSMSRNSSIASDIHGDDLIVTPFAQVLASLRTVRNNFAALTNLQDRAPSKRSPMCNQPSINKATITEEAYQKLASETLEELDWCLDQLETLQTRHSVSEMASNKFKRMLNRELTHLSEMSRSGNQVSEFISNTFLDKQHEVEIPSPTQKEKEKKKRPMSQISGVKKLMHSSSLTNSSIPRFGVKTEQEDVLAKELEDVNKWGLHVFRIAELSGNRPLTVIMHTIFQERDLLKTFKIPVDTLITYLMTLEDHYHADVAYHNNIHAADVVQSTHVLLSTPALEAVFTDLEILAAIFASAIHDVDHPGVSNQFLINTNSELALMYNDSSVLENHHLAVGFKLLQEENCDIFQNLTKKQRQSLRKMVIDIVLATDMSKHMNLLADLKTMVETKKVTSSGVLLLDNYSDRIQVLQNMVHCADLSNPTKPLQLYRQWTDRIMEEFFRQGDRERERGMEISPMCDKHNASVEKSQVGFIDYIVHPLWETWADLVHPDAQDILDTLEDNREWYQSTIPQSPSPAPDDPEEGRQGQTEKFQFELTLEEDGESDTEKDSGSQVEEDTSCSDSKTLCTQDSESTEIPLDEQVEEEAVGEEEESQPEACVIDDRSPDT

- AUC/dose [2]: 2040 ng.h/mL per mg/kg
- AUC/dose [3]: 464 ng.h/mL per mg/kg
- AUC(0-t) [4]: 28200 ng·h/mL
- EC50 [5]: 40 nM
- Vd [6]: 2.25 L/kg
- Stability [7]: Stable
- inhibition [8]: 31%
- clearance [9]: 4.11 mL/min/kg
- inhibition [10]: 16%
- bioavailability [11]: 20%
- bioavailability [12]: 61%
- AUC(0-t) [13]: 7170 ng·h/mL
- inhibition [14]: 16%
- half-life [15]: 7.1 h
- Stability [16]: Stable
- Stability [17]: Stable
- solubility kinetic [18]: 279 µM (≈ 139 µg/mL)
- bioavailability [19]: 34%
- half-life [20]: 3 h
- Vd [21]: 0.38 L/kg
- clearance [22]: 4.8 mL/min/kg
- inhibition [23]: 34%
- bioavailability [24]: 8%
- bioavailability [25]: 13%
- inhibition [26]: 10%
- bioavailability [27]: 18%
- inhibition [28]: 11%
- inhibition [29]: 25%
- inhibition at 10 µM [30]: 6%
- solubility kinetic [31]: 12.7 µM (≈ 6.32 µg/mL)
- AUC/dose [32]: 822 ng.h/mL per mg/kg
- Vd [33]: 0.68 L/kg
- Stability [34]: Stable
- half-life [35]: 2.1 h
- AUC(0-t) [36]: 8220 ng·h/mL
- EC50 [37]: 64 nM
- Stability [38]: Stable
- clearance [39]: 6.7 mL/min/kg
SMILES: COc1cc2nccc(Oc3c(F)cc(NC(=O)c4cnccc4OC)cc3F)c2cc1OCCO
- inhibition at 10 µM [1]: 8%

- solubility kinetic [18]: 279 µM (≈ 115 µg/mL)
- solubility kinetic [31]: 17.5 µM (≈ 7.22 µg/mL)
SMILES: CNC(=O)c1ccc(-c2cnc3ncc(Cc4ccc5ncccc5c4)n3n2)cc1F [CAPMATINIB]
- inhibition in vivo at 10 mg/kg [40]: 17%
